# Results reported in patent US8168651B2, “Protein kinase modulators” (Cylene Pharmaceuticals, Inc., priority 2008, dated 2012).
# Key:
# [1] = target: recombinant human PIM1 (Homo sapiens (Human), UniProt P11309); experiment: PIM-1 kinase activity in cell-free in vitro assay; format: biochemical; conditions: cell-free assay; for inhibition at 0.5 µM: 500 nM compound, read-out: PIM-1: % inh 500 nM
# [2] = target: recombinant human CK2 (Homo sapiens (Human), UniProt P68400); experiment: CK2 assay (cell-free, 33P-ATP filter plate); format: biochemical; conditions: for inhibition at 0.5 µM: 500 nM compound, cell-free assay, read-out: CK2: % inh 500 nM; for inhibition at 1 µM: read-out: CK2 % inhibition 1.0 uM, 1.0 uM
# Chain of recombinant human CK2 (P68400 whole entry): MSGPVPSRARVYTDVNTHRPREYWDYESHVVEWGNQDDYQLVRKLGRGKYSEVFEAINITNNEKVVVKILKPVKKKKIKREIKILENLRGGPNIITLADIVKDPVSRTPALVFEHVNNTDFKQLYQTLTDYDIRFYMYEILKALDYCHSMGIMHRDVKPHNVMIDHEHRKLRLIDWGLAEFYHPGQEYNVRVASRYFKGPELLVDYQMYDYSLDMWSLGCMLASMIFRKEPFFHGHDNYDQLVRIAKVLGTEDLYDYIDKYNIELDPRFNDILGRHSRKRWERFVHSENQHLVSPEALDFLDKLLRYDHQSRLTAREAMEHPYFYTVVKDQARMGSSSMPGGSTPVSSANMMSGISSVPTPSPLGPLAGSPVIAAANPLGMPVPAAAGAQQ
# Chain of recombinant human CK2 (P67870 whole entry partner): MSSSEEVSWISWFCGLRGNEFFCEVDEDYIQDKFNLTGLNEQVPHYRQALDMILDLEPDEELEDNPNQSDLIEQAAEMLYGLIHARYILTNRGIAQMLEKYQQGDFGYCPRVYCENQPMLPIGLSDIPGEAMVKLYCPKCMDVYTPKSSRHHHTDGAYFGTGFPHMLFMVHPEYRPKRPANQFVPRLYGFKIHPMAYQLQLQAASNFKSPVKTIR
# Chain of recombinant human PIM1 (P11309 whole entry): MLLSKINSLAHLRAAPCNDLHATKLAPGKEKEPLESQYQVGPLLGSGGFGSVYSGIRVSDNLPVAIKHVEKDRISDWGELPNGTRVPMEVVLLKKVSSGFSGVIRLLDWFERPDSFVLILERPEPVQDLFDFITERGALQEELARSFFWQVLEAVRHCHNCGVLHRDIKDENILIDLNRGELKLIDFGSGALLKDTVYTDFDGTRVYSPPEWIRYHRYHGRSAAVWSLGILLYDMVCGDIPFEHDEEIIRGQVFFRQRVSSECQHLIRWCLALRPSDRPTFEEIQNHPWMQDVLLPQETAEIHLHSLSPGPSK
Compound,inhibition at 0.5 µM [1] [%],inhibition at 0.5 µM [2] [%],other results
CN(C)CCNc1nc2cc(C#N)ccc2c2cscc12,20,23.4,
CN(C)CCNc1nc2cc(-c3nnn[nH]3)ccc2c2cscc12,89.7,66,IC50 [1]: 87 nM
CN1CCCCC1CNc1nc2cc(-c3nnn[nH]3)ccc2c2cscc12 (centres unmarked),93.9,57.4,IC50 [1]: 54 nM
CN1CCCCC1CNc1nc2cc(C(=O)O)ccc2c2cnccc12 (centres unmarked),82.5,103,IC50 [1]: 211 nM
CN1CCCCC1CNc1nc2cc(C(=O)O)ccc2c2sccc12 (centres unmarked),88,80.1,IC50 [1]: 104 nM
CCN1CCCC1CNc1nc2cc(C(=O)O)ccc2c2sccc12 (centres unmarked),93.3,92.8,IC50 [1]: 100 nM
CCN1CCCC1CNc1nc2cc(-c3nnn[nH]3)ccc2c2ccsc12 (centres unmarked),80,1.86,
c1cc2c(s1)c(NC1CCNCC1)nc1cc(-c3nnn[nH]3)ccc12,111,53.7,IC50 [1]: 138 nM
CN1CCCCC1CNc1nc2cc(-c3nnn[nH]3)ccc2c2ccsc12 (centres unmarked),14.7,-29.1,
COCCNc1nc2cc(C#N)ccc2c2sccc12,-30.6,-18,
COC(C)(C)CNc1nc2cc(C#N)ccc2c2sccc12,-30,-17.1,
O=C(O)c1ccc2c(c1)nc(N1CCOCC1)c1ccsc12 [drawing 590],,,"inhibition at 5 µM ([2]; read-out: CK2 % inhibition 5 uM, 5 uM): 28%"
CN(C)CCNc1nc2cc(C#N)ccc2c2sccc12 [drawing 612],,,inhibition at 1 µM [2]: 0%
N#Cc1ccc2c(c1)nc(Nc1ccccc1)c1ccsc12 [drawing 614],,,inhibition at 1 µM [2]: 0%
NC(=O)c1ccc2c(c1)nc(Nc1ccccc1)c1ccsc12 [drawing 615],,,inhibition at 1 µM [2]: 0%
O=c1[nH]c(-c2ccc3c(c2)nc(Nc2ccccc2)c2ccsc23)no1 [drawing 617],,,inhibition at 1 µM [2]: 0%
O=C(NCc1ccccc1)c1ccc2c(c1)[nH]c(=O)c1ccsc12 [drawing 671],,,CK2 % inhib @ 10 uM [2]: 14%
O=C(NCc1ccccc1)c1ccc2c(c1)[nH]c(=O)c1ccsc12 [drawing 672],,,CK2 % inhib @ 10 uM [2]: −1%
COC(=O)c1ccccc1NC(=O)c1ccc2c(c1)[nH]c(=O)c1ccsc12 [drawing 673],,,CK2 % inhib @ 10 uM [2]: 5%
COC(=O)c1ccccc1NC(=O)c1ccc2c(c1)[nH]c(=O)c1ccsc12 [drawing 674],,,CK2 % inhib @ 10 uM [2]: −16%
CC(C)(C)OC(=O)NC1CCN(C(=O)c2ccc3c(c2)[nH]c(=O)c2ccsc23)CC1 [drawing 676],,,CK2 % inhib @ 10 uM [2]: 10%
CC(C)(C)OC(=O)NC1CCN(C(=O)c2ccc3c(c2)[nH]c(=O)c2ccsc23)CC1 [drawing 677],,,CK2 % inhib @ 10 uM [2]: 1%

# Continued, in another order:
inhibition at 0.5 µM [1] [%],inhibition at 0.5 µM [2] [%],Compound,other results
46.4,24.6,CN1CCCCC1CNc1nc2cc(C#N)ccc2c2cscc12 (centres unmarked),
6.89,20.7,CCN1CCCC1CNc1nc2cc(C#N)ccc2c2cscc12 (centres unmarked),
95.9,72.8,CCN1CCCC1CNc1nc2cc(-c3nnn[nH]3)ccc2c2cscc12 (centres unmarked),IC50 [1]: 79 nM
79.4,107,CCN1CCCC1CNc1nc2cc(C(=O)O)ccc2c2cnccc12 (centres unmarked),IC50 [1]: 155 nM
-9.29,-29.4,CCN1CCCC1CNc1nc2cc(C#N)ccc2c2ccsc12 (centres unmarked),
-29.4,-17,CC(C)(C)OC(=O)N1CCC(Nc2nc3cc(C#N)ccc3c3ccsc23)CC1,
115,-16.8,CN(C)CCNc1nc2cc(C#N)ccc2c2ccsc12,
59.5,5.51,CN1CCCCC1CNc1nc2cc(C#N)ccc2c2ccsc12 (centres unmarked),
99.2,24.2,CN(C)CCNc1nc2cc(-c3nnn[nH]3)ccc2c2ccsc12,IC50 [1]: 267 nM
65,47.2,COCCNc1nc2cc(-c3nnn[nH]3)ccc2c2sccc12,
